Common to all, as to test: biochemical
Holding throughout (design): Eurofins DiscoverX kinase panel, competitive binding assay at 1 uM, percent of DMSO control
Common to all, as to conditions: competitive binding, percent of DMSO control

Experiment [1] has as its target T1, Abl_unphos (Homo sapiens, UniProt P00519).
T1 construct: gene ABL1; non-phosphorylated
A digest of the protocol: (§1)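 Competitive binding assay across a 96-kinase panel with KIF18A compounds at 1 µM; values given as percentage of control (POC), single experiment.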

Experiment [2] deals with CDK18 (Homo sapiens, UniProt Q07002). A digest of the protocol: as §1
Chain of CDK18 (Q07002 whole entry): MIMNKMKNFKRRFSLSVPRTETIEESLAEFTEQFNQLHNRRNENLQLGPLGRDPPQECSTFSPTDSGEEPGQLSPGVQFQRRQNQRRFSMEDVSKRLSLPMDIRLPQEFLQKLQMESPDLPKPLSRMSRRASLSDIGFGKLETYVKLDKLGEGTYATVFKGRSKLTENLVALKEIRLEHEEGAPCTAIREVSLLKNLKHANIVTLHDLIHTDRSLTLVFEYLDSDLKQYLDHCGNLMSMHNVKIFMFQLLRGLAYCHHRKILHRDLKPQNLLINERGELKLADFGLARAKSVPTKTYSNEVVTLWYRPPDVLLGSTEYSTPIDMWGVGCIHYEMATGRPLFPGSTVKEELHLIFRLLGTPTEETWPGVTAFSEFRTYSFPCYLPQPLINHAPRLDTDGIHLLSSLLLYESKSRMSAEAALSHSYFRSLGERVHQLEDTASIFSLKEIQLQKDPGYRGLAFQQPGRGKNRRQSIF
In experiment [3] the target is EGFR (Homo sapiens, UniProt P00533). A digest of the protocol: as §1
Chain of EGFR (P00533 whole entry): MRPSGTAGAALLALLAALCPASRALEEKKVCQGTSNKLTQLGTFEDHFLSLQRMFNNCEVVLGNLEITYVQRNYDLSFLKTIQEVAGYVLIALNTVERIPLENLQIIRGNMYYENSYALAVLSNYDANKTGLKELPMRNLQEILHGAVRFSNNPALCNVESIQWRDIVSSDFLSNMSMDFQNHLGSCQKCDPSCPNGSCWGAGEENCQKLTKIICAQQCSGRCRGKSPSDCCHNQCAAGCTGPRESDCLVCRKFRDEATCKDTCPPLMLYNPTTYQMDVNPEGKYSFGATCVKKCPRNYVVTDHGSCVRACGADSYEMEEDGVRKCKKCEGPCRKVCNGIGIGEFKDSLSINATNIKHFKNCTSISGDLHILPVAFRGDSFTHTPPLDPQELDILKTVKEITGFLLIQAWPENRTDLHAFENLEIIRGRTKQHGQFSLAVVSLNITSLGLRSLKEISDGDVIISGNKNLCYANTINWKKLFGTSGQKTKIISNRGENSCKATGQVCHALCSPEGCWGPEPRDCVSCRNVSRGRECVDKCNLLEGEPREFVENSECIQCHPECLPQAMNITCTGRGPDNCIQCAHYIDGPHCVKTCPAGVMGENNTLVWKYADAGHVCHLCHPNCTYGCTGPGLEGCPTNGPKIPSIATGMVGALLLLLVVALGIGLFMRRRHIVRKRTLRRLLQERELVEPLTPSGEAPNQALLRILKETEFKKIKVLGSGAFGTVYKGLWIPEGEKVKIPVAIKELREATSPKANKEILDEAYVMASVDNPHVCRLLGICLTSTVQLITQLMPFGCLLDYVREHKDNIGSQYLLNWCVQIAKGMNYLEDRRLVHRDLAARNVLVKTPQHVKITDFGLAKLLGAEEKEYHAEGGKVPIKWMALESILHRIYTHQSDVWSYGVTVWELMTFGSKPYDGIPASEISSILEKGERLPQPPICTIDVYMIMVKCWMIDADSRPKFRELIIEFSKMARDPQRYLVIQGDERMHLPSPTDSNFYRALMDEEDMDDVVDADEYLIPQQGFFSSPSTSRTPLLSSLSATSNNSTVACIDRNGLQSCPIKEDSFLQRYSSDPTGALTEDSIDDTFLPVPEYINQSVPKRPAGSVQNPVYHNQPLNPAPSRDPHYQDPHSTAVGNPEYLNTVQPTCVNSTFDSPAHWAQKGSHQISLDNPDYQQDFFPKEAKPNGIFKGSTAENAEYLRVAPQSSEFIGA
Experiment [4] addresses T2, Plk 1 (Homo sapiens, UniProt P53350).
T2 construct: gene PLK1
The gist of the method:
as §1

Experiment [5] has as its target T3, TGFBR1 (Homo sapiens, UniProt P36897).
T3 sequence (P36897 1-503): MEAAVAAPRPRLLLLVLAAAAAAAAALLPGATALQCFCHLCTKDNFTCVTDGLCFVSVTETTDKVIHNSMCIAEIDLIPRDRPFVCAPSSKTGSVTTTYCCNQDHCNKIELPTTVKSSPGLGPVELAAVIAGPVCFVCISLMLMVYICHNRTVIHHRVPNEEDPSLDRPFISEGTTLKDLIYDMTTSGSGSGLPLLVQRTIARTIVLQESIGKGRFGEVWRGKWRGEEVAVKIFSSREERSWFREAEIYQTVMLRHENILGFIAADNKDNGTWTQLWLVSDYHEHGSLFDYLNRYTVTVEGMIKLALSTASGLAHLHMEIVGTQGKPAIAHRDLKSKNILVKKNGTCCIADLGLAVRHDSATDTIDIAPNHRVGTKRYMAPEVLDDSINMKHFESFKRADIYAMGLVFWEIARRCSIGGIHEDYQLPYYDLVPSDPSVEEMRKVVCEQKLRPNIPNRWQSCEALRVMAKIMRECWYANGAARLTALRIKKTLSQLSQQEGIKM
A digest of the protocol: as §1

Setting [6] is: read-out: Kinome Profiling performed by Eurofins DiscoverX / AM-0277, 1.0 µM / POC.
The mark [7] stands for this setting: read-out: Kinome Profiling performed by Eurofins DiscoverX / AM-1882, 1.0 µM / POC.
[8] abbreviates: read-out: Kinome Profiling performed by Eurofins DiscoverX / AM-5308, 1.0 µM / POC.

The values below come from PMC10824666 (Nature Cancer, 2023).

The structures appear in SMILES notation. Like-named read-outs stand apart in the source and are kept apart here.

T2 sequence (P53350 whole entry): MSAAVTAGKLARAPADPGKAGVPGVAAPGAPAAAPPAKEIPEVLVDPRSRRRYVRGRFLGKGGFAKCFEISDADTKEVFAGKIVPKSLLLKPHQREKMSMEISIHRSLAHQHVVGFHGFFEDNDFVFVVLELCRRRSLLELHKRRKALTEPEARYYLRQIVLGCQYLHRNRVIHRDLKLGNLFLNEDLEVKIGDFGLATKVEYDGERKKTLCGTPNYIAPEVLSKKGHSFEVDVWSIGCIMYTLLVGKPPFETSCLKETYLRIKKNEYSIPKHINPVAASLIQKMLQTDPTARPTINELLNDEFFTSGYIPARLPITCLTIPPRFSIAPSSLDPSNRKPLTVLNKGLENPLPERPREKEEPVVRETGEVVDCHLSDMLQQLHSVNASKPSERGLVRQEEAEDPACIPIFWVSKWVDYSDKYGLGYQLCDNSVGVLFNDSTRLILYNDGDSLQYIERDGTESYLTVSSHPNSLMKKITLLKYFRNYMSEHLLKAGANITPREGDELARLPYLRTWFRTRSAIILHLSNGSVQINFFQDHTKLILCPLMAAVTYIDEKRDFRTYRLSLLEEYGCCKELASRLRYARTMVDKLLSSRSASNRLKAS
T1 sequence (P00519 whole entry): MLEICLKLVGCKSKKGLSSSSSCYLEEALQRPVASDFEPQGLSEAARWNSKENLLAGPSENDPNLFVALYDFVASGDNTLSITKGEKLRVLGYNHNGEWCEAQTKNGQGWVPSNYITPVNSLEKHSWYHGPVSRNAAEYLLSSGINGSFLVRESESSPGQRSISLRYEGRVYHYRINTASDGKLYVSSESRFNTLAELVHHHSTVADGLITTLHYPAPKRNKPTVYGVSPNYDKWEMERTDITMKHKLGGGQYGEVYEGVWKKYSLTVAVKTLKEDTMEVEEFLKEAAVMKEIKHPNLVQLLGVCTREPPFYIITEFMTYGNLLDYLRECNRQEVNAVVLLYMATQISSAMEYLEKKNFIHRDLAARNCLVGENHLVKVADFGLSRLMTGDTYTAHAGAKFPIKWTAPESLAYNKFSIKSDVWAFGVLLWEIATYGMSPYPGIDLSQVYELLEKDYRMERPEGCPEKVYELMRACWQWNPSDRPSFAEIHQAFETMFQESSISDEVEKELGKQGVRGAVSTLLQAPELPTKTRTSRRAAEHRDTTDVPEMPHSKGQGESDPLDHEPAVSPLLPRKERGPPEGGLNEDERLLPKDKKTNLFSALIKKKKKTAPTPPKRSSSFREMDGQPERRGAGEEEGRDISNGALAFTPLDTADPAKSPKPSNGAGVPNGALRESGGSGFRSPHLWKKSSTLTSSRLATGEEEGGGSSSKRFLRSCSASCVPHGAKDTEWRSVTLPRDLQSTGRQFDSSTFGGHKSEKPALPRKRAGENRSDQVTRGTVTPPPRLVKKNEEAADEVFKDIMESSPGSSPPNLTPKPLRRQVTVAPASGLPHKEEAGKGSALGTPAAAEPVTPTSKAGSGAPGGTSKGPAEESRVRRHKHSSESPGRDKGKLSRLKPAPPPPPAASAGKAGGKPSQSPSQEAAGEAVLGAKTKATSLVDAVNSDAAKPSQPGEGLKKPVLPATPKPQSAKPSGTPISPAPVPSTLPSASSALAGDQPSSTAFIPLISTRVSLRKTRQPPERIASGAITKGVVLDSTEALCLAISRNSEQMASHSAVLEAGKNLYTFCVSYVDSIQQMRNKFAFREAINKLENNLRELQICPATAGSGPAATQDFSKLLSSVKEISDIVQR

As to `CC(C)(CO)Nc1ccc(C(=O)Nc2cccc(S(=O)(=O)C3CCCC3)c2)c(N2CCC3(CC2)CC3)n1` [AM-0277], the remaining activity at 1 µM in experiment [1] (setting [6]) stood at 100%; in experiment [2] (setting [6]), 78%; in experiment [3] (setting [6]) it was 93%; in experiment [4] (setting [6]), 100%; in experiment [5] (setting [6]), 73%.

Take `CC(C)(C)NS(=O)(=O)c1cccc(NC(=O)c2ccc(S(=O)(=O)NC(C)(C)C)cc2N2CCC3(CC2)CC3)c1` [AM-1882]: the remaining activity at 1 µM in experiment [1] (setting [7]) was 58%; in experiment [2] (setting [7]), 76%; in experiment [3] (setting [7]), 100%; in experiment [4] (setting [7]), 100%; in experiment [5] (setting [7]), 94%.

Regarding `C[C@@H]1CN(c2cccc(NC(=O)c3ccc(NS(=O)(=O)CCO)cc3N3CCC4(CC3)CC4)n2)CCO1` [AM-5308], the remaining activity at 1 µM in experiment [1] (setting [8]) came to 93%; in experiment [2] (setting [8]), 94%; in experiment [3] (setting [8]), 83%; in experiment [4] (setting [8]), 95%; in experiment [5] (setting [8]), 100%.
